Test results as given in ChEMBL document CHEMBL6115002, “Discovery of novel sitolactone derivative leading to PANoptosis and differentiation of acute myeloid leukemia cells” (Eur J Med Chem, 2025).
Active and inactive are the calls of the source. The rule behind the calls is not given here.

Columns and labels:
Kasumi 1 [1] = assay: Induction of cell cycle arrest in human Kasumi 1 cells assessed as increase in accumulation of cells at G2 phase at 0.25 uM incubated for 24 hrs by propidium iodide staining based flow cytometric analysis (reference value: 9.82%); format: functional
SW1990 = assay: Antiproliferative activity against human SW1990 cells assessed as inhibition of cell proliferation incubated for 72 hrs by CCK-8 assay; format: functional, cell-based; settings: SW1990, 72 h
NCI-H358 = assay: Antiproliferative activity against human NCI-H358 cells assessed as inhibition of cell proliferation incubated for 72 hrs by CCK-8 assay; format: functional, cell-based; settings: NCI-H358, 72 h
[2] = Induction of cell cycle arrest in mouse WEHI-3 cells assessed as increase in accumulation of cells at S phase at 0.25 uM incubated for 24 hrs by propidium iodide staining based flow cytometric analysis (reference value: 51.22%); format: functional
[3] = Induction of cell cycle arrest in mouse WEHI-3 cells assessed as increase in accumulation of cells at G2 phase at 0.25 uM incubated for 24 hrs by propidium iodide staining based flow cytometric analysis (reference value: 1.85%); format: functional
WEHI-3 [4] = assay: Induction of pyroptosis in mouse WEHI-3 cells assessed as increase in p-MLKL level at 0.625 to 5 uM incubated for 72 hrs by Western blotting analysis; format: functional, cell-based; settings: dose 0.625-5 µM
MV4-11 = assay: Antiproliferative activity against human MV4-11 cells assessed as inhibition cell proliferation incubated for 72 hrs by MTT assay; format: functional, cell-based; settings: MV4-11, 72 h
Kasumi 1 [5] = assay: Induction of cell differentiation in human Kasumi 1 cells assessed as lobulated nuclei at 1 uM incubated for 24 hrs by giemsa-Wrights staining based analysis; format: functional
[6] = (§1) Toxicity in Balb/c mouse implanted with mouse WEHI-3 cells assessed as separation between white and red pulp area in spleen at 100 to 200 mg/kg, po administered (4aR,6aS,7S,9aS,9bS)-2-(((S)-2-(hydroxymethyl)pyrrolidin-1-yl)methyl)-6a-methyl7 ((triisopropylsilyl)oxy)decahydrocyclopenta[f]chromen-3(2H)-one as prodrug once daily and measured after 15 days; format: organism-based; settings: in vivo, 360 h, dose 100-200 mg/kg, time 15 day
[7] = Induction of cell cycle arrest in mouse WEHI-3 cells assessed as increase in accumulation of cells at G1 phase at 0.5 uM incubated for 24 hrs by propidium iodide staining based flow cytometric analysis (reference value: 46.93%); format: functional
Kasumi 1 [8] = assay: Induction of cell differentiation in human Kasumi 1 cells assessed as increase in CD11B expression by Western blotting analysis; format: functional, cell-based; settings: dose 0.25-1 µM
WEHI-3 [9] = assay: Induction of pyroptosis in mouse WEHI-3 cells assessed as effect on cleaved N-GSDMB at 0.6 to 2.5 uM incubated for 24 hrs by Western blotting analysis; format: functional, cell-based; settings: dose 0.6-2.5 µM
HCT-116 [10] = assay: Antiproliferative activity against human HCT-116 cells assessed as inhibition of cell proliferation incubated for 72 hrs by CCK-8 assay; format: functional, cell-based; settings: HCT-116, 72 h
Kasumi 1 [11] = assay: Induction of cell cycle arrest in human Kasumi 1 cells assessed as increase in P53 level at 0.15 to 1.2 uM incubated for 24 hrs by Western blotting analysis; format: functional, cell-based; settings: dose 0.15-1.2 µM
Jurkat = assay: Antiproliferative activity against human Jurkat cells assessed as inhibition of cell proliferation incubated for 72 hrs by CCK-8 assay; format: functional, cell-based
Kasumi 1 [12] = assay: Induction of cell cycle arrest in human Kasumi 1 cells assessed as increase in accumulation of cells at S phase at 1 uM incubated for 24 hrs by propidium iodide staining based flow cytometric analysis (reference value: 39.77%); format: functional
WEHI-3 [13] = assay: Induction of pyroptosis in mouse WEHI-3 cells assessed as increase in p-RIPK3 level at 0.625 to 5 uM incubated for 72 hrs by Western blotting analysis; format: functional, cell-based; settings: dose 0.625-5 µM
[14] = Induction of cell cycle arrest in mouse WEHI-3 cells assessed as increase in accumulation of cells at G1 phase at 1 uM incubated for 24 hrs by propidium iodide staining based flow cytometric analysis (reference value: 46.93%); format: functional
[15] = as §1, with “animal survival” for “separation between white and red pulp area in spleen”; format: organism-based; settings: in vivo, 360 h, dose 100-200 mg/kg, time 15 day
Kasumi 1 [16] = assay: Induction of apoptosis in human Kasumi 1 cells assessed as increase in cleaved PARP-1 level incubated for 72 hrs by Western blotting analysis; format: functional, cell-based; settings: dose 0.625-5 µM
HCT-116 [17] = assay: Inhibition of tumor sphere formation in human HCT-116 cells at 1.25 uM incubated for 24 hrs; format: functional, cell-based
Kasumi 1 [18] = assay: Induction of pyroptosis in human Kasumi 1 cells assessed as effect on cleaved N-GSDMB at 0.6 to 2.5 uM incubated for 24 hrs by Western blotting analysis; format: functional, cell-based; settings: dose 0.6-2.5 µM
[19] = Antiproliferative activity against mouse WEHI-3 cells assessed as inhibition cell proliferation incubated for 72 hrs by MTT assay; format: functional, cell-based; settings: WEHI-3, 72 h
[20] = Induction of cell cycle arrest in mouse WEHI-3 cells assessed as increase in accumulation of cells at S phase at 0.5 uM incubated for 24 hrs by propidium iodide staining based flow cytometric analysis (reference value: 51.22%); format: functional
PC-3 = assay: Antiproliferative activity against human PC-3 cells assessed as inhibition of cell proliferation incubated for 72 hrs by CCK-8 assay; format: functional, cell-based; settings: PC-3, 72 h
Kasumi 1 [21] = assay: Antiproliferative activity against human Kasumi 1 cells assessed as inhibition cell proliferation incubated for 72 hrs by MTT assay; format: functional, cell-based; settings: Kasumi 1, 72 h
Kasumi 1 [22] = assay: Induction of cell cycle arrest in human Kasumi 1 cells assessed as increase in accumulation of cells at G1 phase at 0.5 uM incubated for 24 hrs by propidium iodide staining based flow cytometric analysis (reference value: 50.41%); format: functional
NCI-H460 = assay: Inhibition of tumor sphere formation in human NCI-H460 cells incubated for 24 hrs; format: functional, cell-based
Kasumi 1 [23] = assay: Induction of apoptosis in human Kasumi 1 cells assessed as increase in caspase-3 level incubated for 72 hrs by Western blotting analysis; format: functional, cell-based; settings: dose 0.625-5 µM
HCT-116 [24] = assay: Anti-cancer activity against human HCT-116 cells assessed as reduction in size of spheroids incubated for 24 hrs; format: functional, cell-based
WEHI-3 [25] = assay: Inhibition of colony formation in mouse WEHI-3 cells incubated for 15 days by crystal violet staining based analysis; format: functional, cell-based; settings: dose 0.5-1 µM, time 15.0 day
[26] = Induction of cell cycle arrest in mouse WEHI-3 cells assessed as increase in accumulation of cells at G2 phase at 0.5 uM incubated for 24 hrs by propidium iodide staining based flow cytometric analysis (reference value: 1.85%); format: functional
HCT-15 = assay: Antiproliferative activity against human HCT-15 cells assessed as inhibition of cell proliferation incubated for 72 hrs by CCK-8 assay; format: functional, cell-based; settings: HCT-15, 72 h
Kasumi 1 [27] = assay: Induction of cell cycle arrest in human Kasumi 1 cells assessed as increase in accumulation of cells at G2 phase at 1 uM incubated for 24 hrs by propidium iodide staining based flow cytometric analysis (reference value: 9.82%); format: functional
BXPC-3 = assay: Antiproliferative activity against human BXPC-3 cells assessed as inhibition of cell proliferation incubated for 72 hrs by CCK-8 assay; format: functional, cell-based; settings: BXPC-3, 72 h
WEHI-3 [28] = assay: Induction of cell differentiation in mouse WEHI-3 cells assessed as lobulated nuclei at 1 uM incubated for 24 hrs by giemsa-Wrights staining based analysis; format: functional

Compound: C=C1C[C@@H]2[C@@H](CC[C@]3(C)[C@@H](O[Si](C(C)C)(C(C)C)C(C)C)CC[C@@H]23)OC1=O
- Activity (Kasumi 1 [1]): 10.77%
- IC50 (SW1990): > 10 µM
- IC50 (NCI-H358): 1.78 µM
- Activity [2]: 46.46%
- Activity [3]: 1.76%
- Activity (WEHI-3 [4]): Active
- IC50 (MV4-11): 1.75 µM
- Activity (Kasumi 1 [5]): Active
- Activity [6]: Non-toxic
- Activity [7]: 53.15%
- Activity (Kasumi 1 [8]): Dose-dependent-effect
- Activity (WEHI-3 [9]): Active
- IC50 (HCT-116 [10]): 1.93 µM
- Activity (Kasumi 1 [11]): Active
- IC50 (Jurkat): 2.6 µM
- Activity (Kasumi 1 [12]): 22.53%
- Activity (WEHI-3 [13]): Active
- Activity [14]: 64.54%
- Activity [15]: Non-toxic
- Activity (Kasumi 1 [16]): Dose-dependent-effect
- inhibition (HCT-116 [17]): Active
- Activity (Kasumi 1 [18]): Active
- IC50 [19]: 0.42 µM
- Activity [20]: 43.52%
- IC50 (PC-3): 2.09 µM
- IC50 (Kasumi 1 [21]): 0.57 µM
- Activity (Kasumi 1 [22]): 53.53%
- inhibition (NCI-H460): Active
- Activity (Kasumi 1 [23]): Dose-dependent-effect
- Activity (HCT-116 [24]): Active
- inhibition (WEHI-3 [25]): Dose-dependent-effect
- Activity [26]: 3.33%
- IC50 (HCT-15): 8.9 µM
- Activity (Kasumi 1 [27]): 18.95%
- IC50 (BXPC-3): > 10 µM
- Activity (WEHI-3 [28]): Active
